Measured values from patent publication US7074789B2, “Kinase inhibitors” (Amgen Inc., priority 1999, dated 2006).

Legend:
Type in all cases: biochemical
Src = molecular target: T1, Src (Homo sapiens, UniProt P12931); experiment: Kinase inhibition assay (33P transfer), Src; conditions: Table 6, Src-1 kinase inhibition class
T1 construct: Kinases are expressed as either kinase domains or full length constructs; made in house
Method in brief: (§1)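 Using immobilised substrate copolymers (poly(Glu,Tyr) 4:1; poly(Arg,Ser) 3:1) and [33P]ATP, purified fusion kinases were allowed to react; plates were then rinsed in 0.5% phosphoric acid and counted in a scintillation detector. Half-maximal inhibition of label transfer defines IC50.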

EGFR = molecular target: T2, EGFR (Homo sapiens, UniProt P00533); experiment: Kinase inhibition assay (33P transfer), EGFR; conditions: Table 2, kinase inhibition class; read-out: EGFR-1
T2 construct: Kinases are expressed as either kinase domains or full length constructs; made in house
Method in brief: as §1

Tek = molecular target: T3, Tek (Homo sapiens, UniProt Q02763); experiment: Kinase inhibition assay (33P transfer), Tek; conditions: read-out: Tek-1
T3 construct: Kinases are expressed as either kinase domains or full length constructs; made in house
Method in brief: as §1

EPHB4 = molecular target: T4, EPHB4 (Homo sapiens, UniProt P54760); experiment: Kinase inhibition assay (33P transfer), EPHB4; conditions: read-out: EPHB4-1
T4 construct: Kinases are expressed as either kinase domains or full length constructs; made in house
T4 sequence (P54760 16-987): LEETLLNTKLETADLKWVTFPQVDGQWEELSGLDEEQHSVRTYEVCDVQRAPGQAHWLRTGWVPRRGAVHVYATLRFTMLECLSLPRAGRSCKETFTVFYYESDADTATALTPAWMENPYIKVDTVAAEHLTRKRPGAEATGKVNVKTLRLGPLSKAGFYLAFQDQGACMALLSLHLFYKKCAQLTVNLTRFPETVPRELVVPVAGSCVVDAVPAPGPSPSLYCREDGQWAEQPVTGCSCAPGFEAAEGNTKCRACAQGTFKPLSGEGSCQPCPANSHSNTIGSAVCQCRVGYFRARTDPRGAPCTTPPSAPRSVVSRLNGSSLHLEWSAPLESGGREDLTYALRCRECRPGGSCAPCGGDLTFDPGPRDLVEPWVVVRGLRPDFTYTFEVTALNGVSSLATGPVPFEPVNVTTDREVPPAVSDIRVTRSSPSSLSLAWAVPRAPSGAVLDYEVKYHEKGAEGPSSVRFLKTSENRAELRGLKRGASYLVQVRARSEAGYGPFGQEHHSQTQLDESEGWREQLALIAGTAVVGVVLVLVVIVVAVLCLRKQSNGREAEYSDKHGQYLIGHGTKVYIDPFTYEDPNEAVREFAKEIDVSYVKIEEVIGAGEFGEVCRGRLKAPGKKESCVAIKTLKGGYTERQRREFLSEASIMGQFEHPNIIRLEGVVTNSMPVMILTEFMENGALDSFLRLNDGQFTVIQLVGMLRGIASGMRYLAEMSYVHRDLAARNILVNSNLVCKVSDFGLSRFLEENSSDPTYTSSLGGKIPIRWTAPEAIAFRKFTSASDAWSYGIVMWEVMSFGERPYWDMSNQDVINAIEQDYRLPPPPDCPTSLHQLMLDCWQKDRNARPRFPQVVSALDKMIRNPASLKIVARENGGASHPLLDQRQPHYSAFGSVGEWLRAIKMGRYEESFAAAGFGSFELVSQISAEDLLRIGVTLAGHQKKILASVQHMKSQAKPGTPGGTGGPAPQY

Ret-1 = molecular target: T5, Ret-1 (Homo sapiens, UniProt P07949); experiment: Kinase inhibition assay (33P transfer), Ret; conditions: Table 6, Ret-1 kinase inhibition class
T5 construct: Kinases are expressed as either kinase domains or full length constructs; made in house
T5 sequence (P07949 29-1114): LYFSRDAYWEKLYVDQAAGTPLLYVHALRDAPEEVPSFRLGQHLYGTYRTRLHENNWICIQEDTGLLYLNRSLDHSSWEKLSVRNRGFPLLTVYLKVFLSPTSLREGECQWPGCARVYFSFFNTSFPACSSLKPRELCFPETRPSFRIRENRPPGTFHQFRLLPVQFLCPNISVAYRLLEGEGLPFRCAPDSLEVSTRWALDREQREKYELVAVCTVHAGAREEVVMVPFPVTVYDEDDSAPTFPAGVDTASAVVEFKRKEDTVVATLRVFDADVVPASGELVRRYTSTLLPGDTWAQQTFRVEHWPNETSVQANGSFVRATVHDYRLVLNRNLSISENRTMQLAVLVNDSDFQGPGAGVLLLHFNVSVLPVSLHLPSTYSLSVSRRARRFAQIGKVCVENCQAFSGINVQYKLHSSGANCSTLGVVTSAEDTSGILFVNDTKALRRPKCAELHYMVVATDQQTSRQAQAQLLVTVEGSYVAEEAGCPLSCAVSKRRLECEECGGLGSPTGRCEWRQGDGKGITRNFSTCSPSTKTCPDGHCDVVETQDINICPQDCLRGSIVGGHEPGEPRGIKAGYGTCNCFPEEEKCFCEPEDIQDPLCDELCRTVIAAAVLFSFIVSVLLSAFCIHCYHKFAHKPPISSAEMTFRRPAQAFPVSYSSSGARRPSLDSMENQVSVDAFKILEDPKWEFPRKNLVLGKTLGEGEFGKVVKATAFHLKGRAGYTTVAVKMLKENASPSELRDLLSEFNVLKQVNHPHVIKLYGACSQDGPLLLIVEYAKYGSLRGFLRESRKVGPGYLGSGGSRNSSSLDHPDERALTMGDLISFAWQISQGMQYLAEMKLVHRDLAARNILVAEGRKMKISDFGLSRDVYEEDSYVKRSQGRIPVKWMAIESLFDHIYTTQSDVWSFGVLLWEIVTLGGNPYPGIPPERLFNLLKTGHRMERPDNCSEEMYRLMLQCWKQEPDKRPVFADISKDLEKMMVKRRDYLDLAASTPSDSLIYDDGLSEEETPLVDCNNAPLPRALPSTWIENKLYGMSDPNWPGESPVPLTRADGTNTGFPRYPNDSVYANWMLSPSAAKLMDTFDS

T3 sequence (Q02763 23-1124, species assumed): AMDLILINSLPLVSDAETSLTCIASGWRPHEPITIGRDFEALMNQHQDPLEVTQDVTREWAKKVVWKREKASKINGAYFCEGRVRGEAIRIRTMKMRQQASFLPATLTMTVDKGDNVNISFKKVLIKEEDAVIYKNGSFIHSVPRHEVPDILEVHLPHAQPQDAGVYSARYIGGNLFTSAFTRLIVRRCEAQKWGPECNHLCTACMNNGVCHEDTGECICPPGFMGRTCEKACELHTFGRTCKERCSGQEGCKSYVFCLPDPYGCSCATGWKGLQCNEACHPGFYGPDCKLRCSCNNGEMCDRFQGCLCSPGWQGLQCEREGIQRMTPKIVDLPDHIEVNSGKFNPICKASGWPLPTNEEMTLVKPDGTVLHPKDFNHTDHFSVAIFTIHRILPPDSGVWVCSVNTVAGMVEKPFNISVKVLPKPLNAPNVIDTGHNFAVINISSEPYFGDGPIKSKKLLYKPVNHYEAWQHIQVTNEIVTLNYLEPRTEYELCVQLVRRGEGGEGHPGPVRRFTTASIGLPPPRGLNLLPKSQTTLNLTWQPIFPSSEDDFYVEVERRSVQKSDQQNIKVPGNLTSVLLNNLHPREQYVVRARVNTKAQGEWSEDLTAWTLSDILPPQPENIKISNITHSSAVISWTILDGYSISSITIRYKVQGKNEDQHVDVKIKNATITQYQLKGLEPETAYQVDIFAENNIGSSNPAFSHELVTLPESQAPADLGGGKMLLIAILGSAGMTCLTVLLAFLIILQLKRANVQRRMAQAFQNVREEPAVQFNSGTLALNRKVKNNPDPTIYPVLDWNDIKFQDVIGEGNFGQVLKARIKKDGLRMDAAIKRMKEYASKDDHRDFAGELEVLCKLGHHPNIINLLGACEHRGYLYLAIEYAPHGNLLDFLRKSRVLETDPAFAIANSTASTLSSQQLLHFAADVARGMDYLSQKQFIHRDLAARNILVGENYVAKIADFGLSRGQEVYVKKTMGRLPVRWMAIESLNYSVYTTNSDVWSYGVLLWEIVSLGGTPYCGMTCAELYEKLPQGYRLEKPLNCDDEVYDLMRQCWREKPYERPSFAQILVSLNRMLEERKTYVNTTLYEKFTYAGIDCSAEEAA
T1 sequence (P12931 whole entry, species assumed, the tested form may be a part): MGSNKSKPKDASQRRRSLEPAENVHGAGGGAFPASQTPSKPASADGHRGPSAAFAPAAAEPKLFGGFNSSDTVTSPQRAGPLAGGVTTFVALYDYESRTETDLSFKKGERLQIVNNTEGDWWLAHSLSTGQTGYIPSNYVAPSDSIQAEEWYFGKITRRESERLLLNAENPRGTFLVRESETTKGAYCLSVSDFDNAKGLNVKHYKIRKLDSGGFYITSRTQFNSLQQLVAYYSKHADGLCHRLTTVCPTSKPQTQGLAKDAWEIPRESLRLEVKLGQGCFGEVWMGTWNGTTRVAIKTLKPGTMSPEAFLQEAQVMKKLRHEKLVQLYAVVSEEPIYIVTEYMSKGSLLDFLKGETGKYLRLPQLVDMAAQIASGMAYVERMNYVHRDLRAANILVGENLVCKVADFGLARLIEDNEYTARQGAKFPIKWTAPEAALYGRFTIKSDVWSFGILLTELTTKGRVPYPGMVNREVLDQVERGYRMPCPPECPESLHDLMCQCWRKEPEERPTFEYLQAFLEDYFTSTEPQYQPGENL
T2 sequence (P00533 25-1210, species assumed): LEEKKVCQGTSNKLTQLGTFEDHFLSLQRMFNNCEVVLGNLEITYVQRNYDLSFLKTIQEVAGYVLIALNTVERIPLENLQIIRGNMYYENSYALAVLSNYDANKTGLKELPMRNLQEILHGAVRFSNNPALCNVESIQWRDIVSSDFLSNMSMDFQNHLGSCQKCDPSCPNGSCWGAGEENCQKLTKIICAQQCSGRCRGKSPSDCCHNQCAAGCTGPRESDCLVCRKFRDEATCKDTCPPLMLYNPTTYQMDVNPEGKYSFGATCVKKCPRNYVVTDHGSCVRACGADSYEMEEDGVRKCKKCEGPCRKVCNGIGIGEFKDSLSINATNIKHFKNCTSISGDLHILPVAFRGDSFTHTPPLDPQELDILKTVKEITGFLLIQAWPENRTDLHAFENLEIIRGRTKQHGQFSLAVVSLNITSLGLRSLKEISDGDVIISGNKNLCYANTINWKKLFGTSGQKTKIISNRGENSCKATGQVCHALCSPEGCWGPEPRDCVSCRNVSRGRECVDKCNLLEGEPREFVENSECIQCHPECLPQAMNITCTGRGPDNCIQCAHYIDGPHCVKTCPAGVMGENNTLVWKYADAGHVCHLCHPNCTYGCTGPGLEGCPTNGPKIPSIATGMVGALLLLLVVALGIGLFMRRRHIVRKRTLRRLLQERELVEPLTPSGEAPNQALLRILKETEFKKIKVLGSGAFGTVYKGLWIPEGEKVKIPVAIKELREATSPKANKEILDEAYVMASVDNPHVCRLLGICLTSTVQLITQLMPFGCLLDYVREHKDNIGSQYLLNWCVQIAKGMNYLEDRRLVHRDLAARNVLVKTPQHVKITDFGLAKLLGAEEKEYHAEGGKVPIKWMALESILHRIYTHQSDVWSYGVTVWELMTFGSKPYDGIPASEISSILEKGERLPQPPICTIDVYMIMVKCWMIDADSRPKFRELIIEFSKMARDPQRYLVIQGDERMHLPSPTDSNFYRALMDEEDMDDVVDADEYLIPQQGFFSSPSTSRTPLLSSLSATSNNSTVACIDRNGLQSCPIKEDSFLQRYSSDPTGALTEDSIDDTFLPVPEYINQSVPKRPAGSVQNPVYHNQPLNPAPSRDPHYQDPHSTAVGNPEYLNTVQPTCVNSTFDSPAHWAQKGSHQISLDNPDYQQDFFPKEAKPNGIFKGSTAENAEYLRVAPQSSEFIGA

IC50 (Src) [µM] | IC50 (EGFR) [µM] | IC50 (Tek) [µM] | IC50 (EPHB4) [µM] | IC50 (Ret-1) [µM] | Structure (SMILES)
> 10.3 | > 10.3 | > 10.3 | 5.51 to 8.04 | 0.919 to 5.51 | COc1cc(Nc2ncnc(-n3c(NC(C)=O)nc4ccccc43)n2)cc(OC)c1OC [Compound 334]
0.888 to 5.33 | < 0.888 | 7.77 to 9.99 | 0.888 to 5.33 | < 0.888 | COc1cc(Nc2ncnc(Nc3ccc(Br)cc3F)n2)cc(OC)c1OC [Compound 41]
< 1.02 | < 1.02 | 8.9 to 11.4 | > 11.4 | < 1.02 | COc1cc(Nc2ncnc(N3CCCc4ccccc43)n2)cc(OC)c1OC [Compound 609]
1.04 to 6.23 | < 1.04 | > 11.7 | 1.04 to 6.23 | < 1.04 | COc1cc(Nc2ncnc(Nc3ccc(C)cc3F)n2)cc(OC)c1OC [Compound 937]
> 11 | > 11 | > 11 | > 11 | > 11 | COc1cc(Nc2ncnc(-n3ccc4c(OC)cccc43)n2)cc(OC)c1OC [Compound 238]
> 10.6 | > 10.6 | > 10.6 | > 10.6 | > 10.6 | COc1cc(Nc2ncnc(N3CCc4cc([N+](=O)[O-])ccc43)n2)cc(OC)c1OC [Compound 187]
< 1.04 | < 1.04 | 9.08 to 11.7 | 1.04 to 6.23 | 1.04 to 6.23 | COc1cc(Nc2ncnc(Nc3ccc(C)c(F)c3)n2)cc(OC)c1OC [Compound 300]
> 11.9 | 9.25 to 11.9 | 9.25 to 11.9 | > 11.9 | > 11.9 | COc1cc(Nc2ncnc(-n3cnc4ccccc43)n2)cc(OC)c1OC [Compound 186]
1.05 to 6.33 | > 11.9 | > 11.9 | 6.33 to 9.22 | > 11.9 | COc1cc(Nc2ncnc(N3CCc4ccccc43)n2)cc(OC)c1OC [Compound 184]
0.986 to 5.91 | < 0.986 | > 11.1 | 0.986 to 5.91 | < 0.986 | COc1cc(Nc2ncnc(Nc3ccc(Cl)cc3F)n2)cc(OC)c1OC [Compound 306]
0.94 to 5.64 | 0.94 to 5.64 | 0.94 to 5.64 | 0.94 to 5.64 | < 0.94 | COc1cc(Nc2ncnc(N3c4ccc(F)cc4CCC3C)n2)cc(OC)c1OC (stereo not drawn) [Compound 298]
> 10.9 | 8.5 to 10.9 | > 10.9 | 8.5 to 10.9 | 5.83 to 8.5 | COc1cc(Nc2ncnc(-n3ccc4ccc(Cl)cc43)n2)cc(OC)c1OC [Compound 237]
9.25 to 11.9 | > 11.9 | > 11.9 | > 11.9 | 6.34 to 9.25 | COc1cc(Nc2ncnc(-n3ncc4ccccc43)n2)cc(OC)c1OC [Compound 240]
> 10.3 | 8 to 10.3 | > 10.3 | > 10.3 | > 10.3 | COc1cc2ccn(-c3ncnc(Nc4cc(OC)c(OC)c(OC)c4)n3)c2cc1OC [Compound 239]
> 11 | 8.59 to 11 | > 11 | > 11 | > 11 | COc1ccc2c(ccn2-c2ncnc(Nc3cc(OC)c(OC)c(OC)c3)n2)c1 [Compound 196]
> 10.9 | > 10.9 | > 10.9 | > 10.9 | > 10.9 | COc1cc(Nc2ncnc(-n3ccc4cc(Cl)ccc43)n2)cc(OC)c1OC [Compound 198]
8.99 to 11.6 | 1.03 to 6.16 | > 11.6 | 8.99 to 11.6 | 1.03 to 6.16 | COc1cc(Nc2ncnc(Nc3cc(F)ccc3F)n2)cc(OC)c1OC [Compound 316]

Further lines, the compound ahead of its results:

Structure (SMILES) | IC50 (Src) [µM] | IC50 (EGFR) [µM] | IC50 (Tek) [µM] | IC50 (EPHB4) [µM] | IC50 (Ret-1) [µM]
COc1cc(Nc2ncnc(Nc3ccc(C)c(NS(C)(=O)=O)c3)n2)cc(OC)c1OC [Compound 305] | < 0.869 | 0.869 to 5.21 | > 9.77 | 0.869 to 5.21 | < 0.869
COCCOc1ccc(Nc2ncnc(Nc3ccc(C)c(O)c3)n2)cc1OCCOC [Compound 125] | < 0.906 | 0.906 to 5.44 | > 10.2 | > 10.2 | 0.906 to 5.44
COc1ccc(Nc2ncnc(N(C/C=C/c3ccccc3)c3ccc(Cl)cc3)n2)cc1OC [Compound 974] | > 9.49 | < 0.844 | > 9.49 | > 9.49 | > 9.49
COc1cc(Nc2ncnc(-n3c(N)nc4ccccc43)n2)ccc1OCCn1ccnn1 [Compound 324] | > 10.1 | > 10.1 | 0.9 to 5.4 | > 10.1 | < 0.9
COc1ccc(Nc2ccc(Nc3ncnc(Nc4cc(OC)c(OC)c(OC)c4)n3)cc2)cc1 [Compound 922] | 0.843 to 5.06 | 0.843 to 5.06 | 0.843 to 5.06 | 5.06 to 7.38 | 0.843 to 5.06
COc1cc(Nc2ncnc(Nc3nnc(-c4ccccc4)[nH]3)n2)cc(OC)c1OC [Compound 311] | > 10.7 | > 10.7 | > 10.7 | > 10.7 | > 10.7
COCCOc1ccc(Nc2ncnc(Nc3ccc(C)c(O)c3)n2)cc1OC [Compound 123] | < 1.01 | < 1.01 | 8.81 to 11.3 | > 11.3 | < 1.01
COc1cc(Nc2ncnc(N(CC(=O)O)c3ccc4c(c3)OCO4)n2)cc(OC)c1OC [Compound 319] | > 9.88 | 0.878 to 5.27 | > 9.88 | > 9.88 | > 9.88
COc1cc(Nc2ncnc(Nc3ccc4c(c3)OCO4)n2)cc(OC)c1OC [Compound 252] | < 1.01 | 1.01 to 6.04 | > 11.3 | 1.01 to 6.04 | > 11.3
C#Cc1cccc(Nc2ncnc(Nc3ccc(OC)c(OC)c3)n2)c1 [Compound 116] | > 13 | < 1.15 | > 13 | > 13 | > 13
COc1ccc(Sc2ncnc(Nc3cc(OC)c(OC)c(OC)c3)n2)cc1 [Compound 175] | 0.999 to 5.99 | > 11.2 | 0.999 to 5.99 | 0.999 to 5.99 | 5.99 to 8.74
COc1cc(Nc2ncnc(N(C/C=C/c3ccccc3)c3ccc(Cl)cc3)n2)cc(OC)c1OC [Compound 56] | > 8.93 | < 0.794 | > 8.93 | > 8.93 | > 8.93
COCCOc1ccc(Nc2ncnc(-n3c(N)nc4ccccc43)n2)cc1OCCOC [Compound 302] | > 9.97 | > 9.97 | > 9.97 | > 9.97 | > 9.97
COc1ccc(Nc2ncnc(Nc3ccc4[nH]ccc4c3)n2)cc1OC [Compound 115] | 6.62 to 9.66 | < 1.1 | > 12.4 | 9.66 to 12.4 | 1.1 to 6.62
COc1ccc(Nc2ncnc(-n3c(N)nc4ccccc43)n2)cc1O [Compound 286] | 10 to 12.9 | 6.87 to 10 | 1.14 to 6.87 | 6.87 to 10 | < 1.14
COCCOc1ccc(Nc2ncnc(-n3c(N)nc4ccccc43)n2)cc1OC [Compound 287] | > 11 | 8.59 to 11 | > 11 | > 11 | > 11
